# Data reported in US4837206A, “Esperamicin derivatives” (Bristol-Myers Company, priority 1987, dated 1989).
# Tests used:
# P388 murine leukemia = assay: P388 In Vivo Murine Leukemia Assay; parameters: species or system CDF1 female mice; conditions: i.p., once on day 1; for % T/C (median survival time): >=125% significant; for MST: control MST 9.5 days; for Average Wgt. change in g (day 4): control 1.1; for No. Mice alive on day 5/total: control 10/10
# Procedure: The test protocol involved CDF1 female mice implanted intraperitoneally with a tumor inoculum of 10^6 ascites cells of P388 murine leukemia and treated with various doses of test compound. The compound was administered by intraperitoneal injection on a certain dosage schedule, i.e. test drug given once on day one, the day of tumor inoculation. Groups of four mice were used for each dosage amount. A group of ten saline-treated control mice was employed.
# The test compound was dissolved in a mixture of water and ethanol. Death or survival of the treated and non-treated mice was recorded daily, and the median survival time (MST) in days was calculated for the test (T) and control (C) groups. […] Mice weighing 20 g each were employed and a loss in weight of up to about 2 grams was not considered excessive.
# Moser human colon = assay: In vitro cytotoxicity assay; type: cell-based; conditions: cell growth inhibition, four-fold serial dilution, values <500 mcg/ml positive indicator of activity
# Procedure: (§1) N-Acetylesperamicin A1 was also tested in the in vitro cytotoxicity assay. This assay involves growing various mammalian tumor cells, including human tumor cells, on microtiter plates employing established tissue culture methods. The concentration of compound required to inhibit cell growth by 50% (IC50) was then determined by a four-fold serial dilution technique. The validity of the method has been supported by a report published in the "Proceedings of the American Association for Cancer Research", Vol. 25, 328, p. 1891 (1984). Tumor cells of the following types were employed: B16-F10 murine melanoma, Moser human colon, and three human colon tumor cell lines, namely HCT-116, HCT-VM34 and HCT/VP35, the latter two being resistant to teniposide (VM) and etoposide (VP).
# HCT/VM34 = assay: In vitro cytotoxicity assay; type: cell-based; conditions: Homo sapiens; HCT/VM34, teniposide-resistant; cell growth inhibition; values <500 mcg/ml positive indicator of activity
# Procedure: as §1
# HCT-116 = assay: In vitro cytotoxicity assay; type: cell-based; conditions: Homo sapiens, cell growth inhibition, four-fold serial dilution, values <500 mcg/ml positive indicator of activity
# Procedure: as §1
# HCT/VP35 = assay: In vitro cytotoxicity assay; type: cell-based; conditions: Homo sapiens; HCT/VP35, etoposide-resistant; cell growth inhibition; values <500 mcg/ml positive indicator of activity
# Procedure: as §1
# B16-F10 murine melanoma = assay: In vitro cytotoxicity assay; type: cell-based; conditions: Mus musculus, cell growth inhibition, four-fold serial dilution, values <500 mcg/ml positive indicator of activity
# Procedure: as §1
# [1] = system: P. aeruginosa/ATCC 23389 A20235; assay: Antimicrobial activity, serial two-fold agar dilution; type: cell-based; conditions: Pseudomonas aeruginosa, ATCC23389; nutrient agar medium
# Procedure: (§2) Antimicrobial activity of N-acetylesperamicin A1 was determined for a variety of bacteria by the serial two-fold agar dilution method. Nutrient agar medium was used.
# K. pneumoniae A9664 = assay: as above; type: cell-based; conditions: Klebsiella pneumoniae, nutrient agar medium
# Procedure: as §2
# [2] = system: S. faecalis/ATCC 33186 A15708; assay: as above; type: cell-based; conditions: Enterococcus faecalis, ATCC33186; nutrient agar medium
# Procedure: as §2
# S. aureus A9537 = assay: as above; type: cell-based; conditions: Staphylococcus aureus, nutrient agar medium
# Procedure: as §2
# [3] = system: P. aeruginosa/ATCC 27853 A21508; assay: as above; type: cell-based; conditions: Pseudomonas aeruginosa, ATCC27853; nutrient agar medium
# Procedure: as §2
# [4] = system: S. aureus/ATCC 29213 A24407; assay: as above; type: cell-based; conditions: Staphylococcus aureus, ATCC29213; nutrient agar medium
# Procedure: as §2
# [5] = system: B. subtilis/ATCC 6633 A9506-A; assay: as above; type: cell-based; conditions: Bacillus subtilis, ATCC6633; nutrient agar medium
# Procedure: as §2
# [6] = system: S. faecalis/ATCC 29218 A25707; assay: as above; type: cell-based; conditions: Enterococcus faecalis, ATCC29218; nutrient agar medium
# Procedure: as §2
# [7] = system: S. aureus/NCCLS strain A20698; assay: as above; type: cell-based; conditions: Staphylococcus aureus; nutrient agar medium
# Procedure: as §2
# S. faecalis A20688 = assay: as above; type: cell-based; conditions: Enterococcus faecalis, nutrient agar medium
# Procedure: as §2
# K. pneumoniae A20468 = assay: as above; type: cell-based; conditions: Klebsiella pneumoniae, nutrient agar medium
# Procedure: as §2
# P. aeruginosa A9843 = assay: as above; type: cell-based; conditions: Pseudomonas aeruginosa, nutrient agar medium
# Procedure: as §2
# [8] = system: E. coli/NCCLS strain A20697; assay: as above; type: cell-based; conditions: Escherichia coli; nutrient agar medium
# Procedure: as §2
# E. coli A15119 = assay: as above; type: cell-based; conditions: Escherichia coli, nutrient agar medium
# Procedure: as §2
# P. vulgaris A21559 = assay: as above; type: cell-based; conditions: Proteus vulgaris, nutrient agar medium
# Procedure: as §2
# pathogenic bacteria = assay: Antimicrobial activity (overall); type: cell-based
# Procedure: as §2
structure (smiles),measurement,setting,value
C=C(OC)C(=O)Nc1cc(OC)c(OC)cc1C(=O)OC1CC(OC2C(=O)C(NC(=O)OC)=C3C(=CCSSSC)C2(O)C#CC=CC#CC3OC2OC(C)C(NOC3CC(O)C(SC)C(C)O3)C(O)C2OC2CC(OC)C(N(C(C)=O)C(C)C)CO2)OC(C)C1O (stereo not shown) [N-Acetylesperamicin A1],% T/C (median survival time),P388 murine leukemia; 0.0016 mg/kg,147%
same,MST,P388 murine leukemia; 0.0016 mg/kg,14.0 days
same,Average Wgt. change in g (day 4),P388 murine leukemia; 0.0016 mg/kg,-0.5 g
same,No. Mice alive on day 5/total,P388 murine leukemia; 0.0016 mg/kg,6/6
same,% T/C (median survival time),P388 murine leukemia; 0.0032 mg/kg,153%
same,MST,P388 murine leukemia; 0.0032 mg/kg,14.5 days
same,Average Wgt. change in g (day 4),P388 murine leukemia; 0.0032 mg/kg,-0.2 g
same,No. Mice alive on day 5/total,P388 murine leukemia; 0.0032 mg/kg,6/6
same,% T/C (median survival time),P388 murine leukemia; 0.0064 mg/kg,147%
same,MST,P388 murine leukemia; 0.0064 mg/kg,14.0 days
same,Average Wgt. change in g (day 4),P388 murine leukemia; 0.0064 mg/kg,-1.7 g
same,No. Mice alive on day 5/total,P388 murine leukemia; 0.0064 mg/kg,6/6
same,% T/C (median survival time),P388 murine leukemia; 0.0128 mg/kg,179%
same,MST,P388 murine leukemia; 0.0128 mg/kg,17.0 days
same,Average Wgt. change in g (day 4),P388 murine leukemia; 0.0128 mg/kg,-2.2 g
same,No. Mice alive on day 5/total,P388 murine leukemia; 0.0128 mg/kg,6/6
same,% T/C (median survival time),P388 murine leukemia; 0.0256 mg/kg,63%
same,MST,P388 murine leukemia; 0.0256 mg/kg,6.0 days
same,Average Wgt. change in g (day 4),P388 murine leukemia; 0.0256 mg/kg,-3.1 g
same,No. Mice alive on day 5/total,P388 murine leukemia; 0.0256 mg/kg,4/6
same,% T/C (median survival time),P388 murine leukemia; 0.0512 mg/kg,63%
same,MST,P388 murine leukemia; 0.0512 mg/kg,6.0 days
same,Average Wgt. change in g (day 4),P388 murine leukemia; 0.0512 mg/kg,-2.9 g
same,No. Mice alive on day 5/total,P388 murine leukemia; 0.0512 mg/kg,4/6
same,% T/C (median survival time),P388 murine leukemia; 0.0896 mg/kg,TOX
same,MST,P388 murine leukemia; 0.0896 mg/kg,TOX
same,Average Wgt. change in g (day 4),P388 murine leukemia; 0.0896 mg/kg,-3.4 g
same,No. Mice alive on day 5/total,P388 murine leukemia; 0.0896 mg/kg,0/6
same,IC50,Moser human colon,1 µg/mL
same,IC50,HCT/VM34,0.3 µg/mL
same,IC50,HCT-116,0.0135 µg/mL
same,IC50,HCT/VP35,0.0271 µg/mL
same,IC50,B16-F10 murine melanoma,0.0522 µg/mL
same,MIC,[1],125 µg/mL
same,MIC,K. pneumoniae A9664,32 µg/mL
same,MIC,[2],0.016 µg/mL
same,MIC,S. aureus A9537,0.008 µg/mL
same,MIC,[3],> 125 µg/mL
same,MIC,[4],0.03 µg/mL
same,MIC,[5],0.03 µg/mL
same,MIC,[6],0.016 µg/mL
same,MIC,[7],0.016 µg/mL
same,MIC,S. faecalis A20688,0.03 µg/mL
same,MIC,K. pneumoniae A20468,> 125 µg/mL
same,MIC,P. aeruginosa A9843,> 125 µg/mL
same,MIC,[8],8 µg/mL
same,MIC,E. coli A15119,32 µg/mL
same,MIC,P. vulgaris A21559,125 µg/mL
same,Antibacterial activity (in words),pathogenic bacteria,showed activity against a variety of pathogenic bacteria
